Publication PMC9649612, “Molecular docking and biochemical validation of (-)-syringaresinol-4-O-β-D-apiofuranosyl-(1→2)-β-D-glucopyranoside binding to an allosteric site in monoamine transporters” (Frontiers in Pharmacology, 2022)

How the values were obtained:
[1] = target: T1, hDAT S422T (S1 site mutant) (Homo sapiens, UniProt Q01959, S422T); test: APP+ transport in HeLa cells expressing hDAT mutant S422T; format: cell-based
T1 construct: expressed in transfected cells; host or cells: HeLa
Experimental: (§1) The mutants used for this study were constructed in the WT background carried by the expression plasmids for hSERT, hDAT, or hNET under the control of CMV promotor in pcDNA3.1 vector, respectively. All mutants were generated using the Mut Express II Fast Mutagenesis Kit (Vazyme) and confirmed by full-length DNA sequencing.
(§2) HeLa cells were cultured in Dulbecco’s Modified Eagle’s Medium supplemented with 10% fetal bovine serum, 100 units/ml penicillin, and 100 μg/ml streptomycin at 37°C in a humidified 5% CO2 incubator. Cells were plated in a 6-well culture plate and grown overnight. Cells at ∼70% confluence were transfected with hSERT, hDAT, or hNET cDNA in pcDNA3.1 by lipofectamine 2000. […] After grown for additional 12–16 h, the cells were assayed for APP^+ or ASP^+ fluorescence image acquisition.
(§3) The cells expressing WT or mutants of hSERT, hDAT, or hNET were wet mounted on polylysine coated glass slides in 12-well plates and applied for the indicated treatments. […] The extent of APP^+ accumulated in the cells was determined by confocal imaging analysis. ASP^+ binding to SERT in the cell membrane was measured with digitonin-permeabilized cells ([Li M. et al., 2022a]). […] After removing excess ASP^+ by rapid washing three times, ASP^+ binding was determined by confocal imaging analysis.
(§4) Images were analyzed using Zen Blue software. […]

[2] = target: T2, hSERT G498T (S2 site mutant) (Homo sapiens, UniProt P31645, G498T); test: APP+ transport in HeLa cells expressing hSERT mutant G498T; format: cell-based; details: 2 μM APP+ 5 min, intact HeLa cells, read-out: SAG IC50 for transport
T2 construct: expressed in transfected cells; host or cells: HeLa (ATCC CCL-2), transient, pcDNA3.1
Experimental: as §1, §2, §3, §4

[3] = target: T3, WT-hNET (Homo sapiens, UniProt P23975); test: APP+ transport (uptake) in HeLa cells expressing WT-hNET; format: cell-based; details: WT hNET; APP+ transport, intact HeLa cells; read-out: SAG IC50
T3 construct: expressed in transfected cells; host or cells: HeLa
Experimental: (§5) HeLa cells were cultured in Dulbecco’s Modified Eagle’s Medium supplemented with 10% fetal bovine serum, 100 units/ml penicillin, and 100 μg/ml streptomycin at 37°C in a humidified 5% CO2 incubator. Cells were plated in a 6-well culture plate and grown overnight. Cells at ∼70% confluence were transfected with hSERT, hDAT, or hNET cDNA in pcDNA3.1 by lipofectamine 2000. Transfected cells were incubated for 24 h at 37°C with 5% CO2 and then transferred into a 12-well plate placed with polylysine coated slides. After grown for additional 12–16 h, the cells were assayed for APP^+ or ASP^+ fluorescence image acquisition.
as §3
(§6) Images were analyzed using Zen Blue software.
(§7) Nonlinear regression fits of experimental and calculated data were performed with Origin (Origin Lab). […]

[4] = target: T4, hDAT R544G (S2 site mutant) (Homo sapiens, UniProt Q01959, R544G); test: APP+ transport in HeLa cells expressing hDAT mutant R544G; format: cell-based
T4 construct: expressed in transfected cells; host or cells: HeLa
Experimental: as §1, §2, §3, §4

[5] = target: T5, hDAT Q317A (S2 site mutant) (Homo sapiens, UniProt Q01959, Q317A); test: APP+ transport in HeLa cells expressing hDAT mutant Q317A; format: cell-based; details: intact HeLa cells, read-out: SAG IC50
T5 construct: expressed in transfected cells; host or cells: HeLa
Experimental: as §1, §2, §3, §4

[6] = target: T6, hSERT P499G (S2 site mutant) (Homo sapiens, UniProt P31645, P499G); test: APP+ transport in HeLa cells expressing hSERT mutant P499G; format: cell-based; details: 2 μM APP+ 5 min, intact HeLa cells, read-out: SAG IC50 for transport
T6 construct: expressed in transfected cells; host or cells: HeLa (ATCC CCL-2), transient, pcDNA3.1
Experimental: as §1, §2, §3, §4

[7] = target: T7, hSERT P560G (S2 site mutant) (Homo sapiens, UniProt P31645, P560G); test: ASP+ binding in digitonin-permeabilized HeLa cells expressing hSERT P560G; details: 10 μM ASP+, read-out: SAG IC50 for binding
T7 construct: expressed in transfected cells; host or cells: HeLa (ATCC CCL-2), transient, pcDNA3.1
Experimental: as §1, §2, §3, §4

[8] = target: T8, hDAT D476N (S2 site mutant) (Homo sapiens, UniProt Q01959, D476N); test: APP+ transport in HeLa cells expressing hDAT mutant D476N; format: cell-based; details: intact HeLa cells, read-out: SAG IC50
T8 construct: expressed in transfected cells; host or cells: HeLa
Experimental: as §1, §2, §3, §4

[9] = target: T9, hSERT T583A (S2 site mutant) (Homo sapiens, UniProt P31645, T583A); test: APP+ transport in HeLa cells expressing hSERT mutant T583A; format: cell-based; details: 2 μM APP+ 5 min, intact HeLa cells, read-out: SAG IC50 for transport
T9 construct: expressed in transfected cells; host or cells: HeLa (ATCC CCL-2), transient, pcDNA3.1
Experimental: as §1, §2, §3, §4

[10] = target: T10, hSERT Y579A (S2 site mutant) (Homo sapiens, UniProt P31645, Y579A); test: APP+ transport in HeLa cells expressing hSERT mutant Y579A; format: cell-based; details: 2 μM APP+ 5 min, intact HeLa cells, read-out: SAG IC50 for transport
T10 construct: expressed in transfected cells; host or cells: HeLa (ATCC CCL-2), transient, pcDNA3.1
Experimental: as §1, §2, §3, §4

[11] = target: T11, hDAT H477Q (S2 site mutant) (Homo sapiens, UniProt Q01959, H477Q); test: APP+ transport in HeLa cells expressing hDAT mutant H477Q; format: cell-based; details: intact HeLa cells, read-out: SAG IC50
T11 construct: expressed in transfected cells; host or cells: HeLa
Experimental: as §1, §2, §3, §4

[12] = target: T12, hDAT T566A (S2 site mutant) (Homo sapiens, UniProt Q01959, T566A); test: APP+ transport in HeLa cells expressing hDAT mutant T566A; format: cell-based
T12 construct: expressed in transfected cells; host or cells: HeLa
Experimental: as §1, §2, §3, §4

[13] = target: T13, hSERT I172F (S1 site mutant) (Homo sapiens, UniProt P31645, I172F); test: APP+ transport in HeLa cells expressing hSERT mutant I172F; format: cell-based; details: 2 μM APP+ 5 min, intact HeLa cells, read-out: SAG IC50 for transport
T13 construct: expressed in transfected cells; host or cells: HeLa
Experimental: as §1, §2, §3, §4

[14] = target: T14, hNET L563A (S2 site mutant) (Homo sapiens, UniProt P23975, L563A); test: APP+ transport in HeLa cells expressing hNET mutant L563A; format: cell-based; details: intact HeLa cells, read-out: SAG IC50
T14 construct: expressed in transfected cells; host or cells: HeLa
Experimental: as §1, §2, §3, §4

[15] = target: T15, hSERT E493N (S2 site mutant) (Homo sapiens, UniProt P31645, E493N); test: APP+ transport in HeLa cells expressing hSERT mutant E493N; format: cell-based; details: 2 μM APP+ 5 min, intact HeLa cells, read-out: SAG IC50 for transport
T15 construct: expressed in transfected cells; host or cells: HeLa (ATCC CCL-2), transient, pcDNA3.1
Experimental: as §1, §2, §3, §4

[16] = target: T16, hSERT S559A (S2 site mutant) (Homo sapiens, UniProt P31645, S559A); test: ASP+ binding in digitonin-permeabilized HeLa cells expressing hSERT S559A; details: 10 μM ASP+, read-out: SAG IC50 for binding
T16 construct: expressed in transfected cells; host or cells: HeLa (ATCC CCL-2), transient, pcDNA3.1
Experimental: as §1, §2, §3, §4

[17] = target: T17, hNET A477G (S2 site mutant) (Homo sapiens, UniProt P23975, A477G); test: APP+ transport in HeLa cells expressing hNET mutant A477G; format: cell-based; details: intact HeLa cells, read-out: SAG IC50
T17 construct: expressed in transfected cells; host or cells: HeLa
Experimental: as §1, §2, §3, §4

[18] = target: T18, hDAT F76V (S1 site mutant) (Homo sapiens, UniProt Q01959, F76V); test: APP+ transport in HeLa cells expressing hDAT mutant F76V; format: cell-based
T18 construct: expressed in transfected cells; host or cells: HeLa
Experimental: as §1, §2, §3, §4

[19] = target: T19, hDAT A480G (S2 site mutant) (Homo sapiens, UniProt Q01959, A480G); test: APP+ transport in HeLa cells expressing hDAT mutant A480G; format: cell-based; details: intact HeLa cells, read-out: SAG IC50
T19 construct: expressed in transfected cells; host or cells: HeLa
Experimental: as §1, §2, §3, §4

[20] = target: T20, hSERT Q562N (S2 site mutant) (Homo sapiens, UniProt P31645, Q562N); test: APP+ transport in HeLa cells expressing hSERT mutant Q562N; format: cell-based; details: 2 μM APP+ 5 min, intact HeLa cells, read-out: SAG IC50 for transport
T20 construct: expressed in transfected cells; host or cells: HeLa (ATCC CCL-2), transient, pcDNA3.1
Experimental: as §1, §2, §3, §4

[21] = target: T21, WT-hSERT (Homo sapiens, UniProt P31645); test: APP+ transport (uptake) in HeLa cells expressing WT-hSERT; format: cell-based; details: 2 μM APP+ 5 min, SAG added 5 min prior, intact HeLa cells
T21 construct: expressed in transfected cells; host or cells: HeLa (ATCC CCL-2), transient, pcDNA3.1
Experimental: as §5, §3, §6, §7

T4 sequence (Q01959 whole entry R544G): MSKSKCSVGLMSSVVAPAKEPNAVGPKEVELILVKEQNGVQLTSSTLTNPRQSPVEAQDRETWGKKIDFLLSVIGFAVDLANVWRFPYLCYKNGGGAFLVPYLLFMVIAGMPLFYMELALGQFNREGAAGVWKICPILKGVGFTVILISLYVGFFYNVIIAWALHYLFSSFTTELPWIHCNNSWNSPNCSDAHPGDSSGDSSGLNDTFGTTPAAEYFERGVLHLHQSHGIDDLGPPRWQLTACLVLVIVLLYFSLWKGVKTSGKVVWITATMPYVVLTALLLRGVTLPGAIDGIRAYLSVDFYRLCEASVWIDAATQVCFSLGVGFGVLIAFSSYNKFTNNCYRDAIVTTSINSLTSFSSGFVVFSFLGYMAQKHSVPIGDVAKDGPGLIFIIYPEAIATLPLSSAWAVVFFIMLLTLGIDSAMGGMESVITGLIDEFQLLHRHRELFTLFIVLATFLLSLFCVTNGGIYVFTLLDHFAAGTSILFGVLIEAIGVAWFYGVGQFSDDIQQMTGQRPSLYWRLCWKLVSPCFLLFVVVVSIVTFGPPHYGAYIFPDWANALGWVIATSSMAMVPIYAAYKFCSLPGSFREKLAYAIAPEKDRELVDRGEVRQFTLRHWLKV
T12 sequence (Q01959 whole entry T566A): as the sequence (Q01959 whole entry R544G) above, with G544R, T566A counted along it
T1 sequence (Q01959 whole entry S422T): as the sequence (Q01959 whole entry R544G) above, with S422T, G544R counted along it
T18 sequence (Q01959 whole entry F76V): as the sequence (Q01959 whole entry R544G) above, with F76V, G544R counted along it
T5 sequence (Q01959 whole entry Q317A): as the sequence (Q01959 whole entry R544G) above, with Q317A, G544R counted along it
T17 sequence (P23975 whole entry A477G): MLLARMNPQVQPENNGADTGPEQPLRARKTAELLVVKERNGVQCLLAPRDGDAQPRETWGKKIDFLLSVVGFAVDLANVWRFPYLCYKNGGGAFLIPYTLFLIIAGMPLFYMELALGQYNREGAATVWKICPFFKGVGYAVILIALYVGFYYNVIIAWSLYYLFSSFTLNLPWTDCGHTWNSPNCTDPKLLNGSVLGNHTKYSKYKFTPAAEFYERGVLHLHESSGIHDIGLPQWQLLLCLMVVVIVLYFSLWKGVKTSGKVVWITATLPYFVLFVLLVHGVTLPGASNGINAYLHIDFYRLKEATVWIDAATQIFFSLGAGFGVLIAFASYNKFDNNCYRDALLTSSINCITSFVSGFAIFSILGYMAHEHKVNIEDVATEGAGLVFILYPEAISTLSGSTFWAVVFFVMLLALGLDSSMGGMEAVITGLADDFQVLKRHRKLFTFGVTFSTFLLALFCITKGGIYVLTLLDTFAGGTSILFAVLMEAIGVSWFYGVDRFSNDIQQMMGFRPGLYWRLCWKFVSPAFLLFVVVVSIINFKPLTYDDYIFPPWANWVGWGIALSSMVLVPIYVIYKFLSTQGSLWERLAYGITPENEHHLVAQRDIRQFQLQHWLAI
T8 sequence (Q01959 whole entry D476N): as the sequence (Q01959 whole entry R544G) above, with D476N, G544R counted along it
T11 sequence (Q01959 whole entry H477Q): as the sequence (Q01959 whole entry R544G) above, with H477Q, G544R counted along it
T14 sequence (P23975 whole entry L563A): as the sequence (P23975 whole entry A477G) above, with G477A, L563A counted along it
T3 sequence (P23975 whole entry): as the sequence (P23975 whole entry A477G) above, with G477A counted along it
T19 sequence (Q01959 whole entry A480G): as the sequence (Q01959 whole entry R544G) above, with A480G, G544R counted along it

## (-)-Syringaresinol-4-O-β-D-apiofuranosyl-(1→2)-β-D-glucopyranoside [SAG]
[1]; hDAT S1 residue Ser422 replaced
  Effect of mutation on SAG inhibition potency: little effect
[1]; hDAT S422T (S1), intact HeLa cells, read-out: SAG IC50
  IC50: 24.5 ± 1.4 µM
[2]
  IC50: 69.2 ± 3.3 µM
[3]
  IC50: 40.1 ± 2.8 µM
[4]; hDAT R544G vs WT-hDAT
  Increase in SAG IC50 compared with WT: less than 10 fold
[4]; hDAT R544G, intact HeLa cells, read-out: SAG IC50
  IC50: 150 ± 4 µM
[5]
  IC50: 51.3 ± 3.1 µM
[6]
  IC50: 88.1 ± 2.8 µM
[7]
  IC50: 324 ± 28 µM
[8]
  IC50: 93.8 ± 3.9 µM
[9]
  IC50: > 1000 µM
[10]
  IC50: 127 ± 3 µM
[11]
  IC50: 72.4 ± 4.8 µM
[12]; hDAT T566A vs WT-hDAT
  Increase in SAG IC50 compared with WT: less than 10 fold
[12]; hDAT T566A, intact HeLa cells, read-out: SAG IC50
  IC50: 136 ± 6 µM
[13]
  IC50: 12.5 ± 0.97 µM
[14]
  IC50: 304 ± 12 µM
[15]
  IC50: 53.2 ± 6.6 µM
[16]
  IC50: 126 ± 8.1 µM
[17]
  IC50: > 1000 µM
[18]; hDAT F76V (S1), intact HeLa cells, read-out: SAG IC50
  IC50: 18.2 ± 0.8 µM
[18]; hDAT S1 residue Phe76 replaced
  Effect of mutation on SAG inhibition potency: little effect
[19]
  IC50: 239 ± 14 µM
[20]
  IC50: 289 ± 11 µM
[21]
  IC50: 2.54 ± 0.13 µM
